Values of other authors as cited in patent US20250114351A1, “5-HT2C RECEPTOR MODULATING AGENTS FOR THE TREATMENT OF NEURODEGENERATIVE, MENTAL, COGNITIVE AND AUTOIMMUNE CNS DISORDERS” (priority 2022, published 2025).

Experiments:
5-HT2A = 5-HT2A (Homo sapiens, UniProt P28223)
5-HT2C = target: T1, 5-HT2C (Homo sapiens, UniProt P28335)
T1 sequence (P28335 33-458): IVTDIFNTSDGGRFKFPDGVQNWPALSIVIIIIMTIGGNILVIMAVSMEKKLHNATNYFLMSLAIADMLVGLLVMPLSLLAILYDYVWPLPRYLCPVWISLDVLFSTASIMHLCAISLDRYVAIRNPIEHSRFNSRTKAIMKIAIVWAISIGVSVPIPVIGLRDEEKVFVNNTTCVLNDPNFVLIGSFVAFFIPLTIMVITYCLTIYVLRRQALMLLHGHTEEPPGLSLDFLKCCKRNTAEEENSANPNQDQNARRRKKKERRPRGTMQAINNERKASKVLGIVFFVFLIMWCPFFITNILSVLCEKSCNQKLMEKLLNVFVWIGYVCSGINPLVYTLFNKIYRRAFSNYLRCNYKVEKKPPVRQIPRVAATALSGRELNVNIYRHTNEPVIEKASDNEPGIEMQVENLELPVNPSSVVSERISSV

5-HT2B = 5-HT2B (Homo sapiens, UniProt P41595)
Sequence of 5-HT2B (P41595 whole entry, species assumed): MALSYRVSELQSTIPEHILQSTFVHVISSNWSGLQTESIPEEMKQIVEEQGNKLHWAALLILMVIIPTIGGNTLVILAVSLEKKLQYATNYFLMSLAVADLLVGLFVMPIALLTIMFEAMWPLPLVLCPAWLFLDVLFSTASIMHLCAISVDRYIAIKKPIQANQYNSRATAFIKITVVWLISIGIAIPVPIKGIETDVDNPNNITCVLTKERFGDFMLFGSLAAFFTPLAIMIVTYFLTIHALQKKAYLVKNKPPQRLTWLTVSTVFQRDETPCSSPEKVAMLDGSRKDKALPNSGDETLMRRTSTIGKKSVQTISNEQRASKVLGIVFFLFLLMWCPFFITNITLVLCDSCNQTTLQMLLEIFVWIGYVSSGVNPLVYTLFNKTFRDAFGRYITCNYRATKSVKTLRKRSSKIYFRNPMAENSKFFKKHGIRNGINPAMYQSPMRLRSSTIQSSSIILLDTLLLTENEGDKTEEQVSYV

Sequence of 5-HT2A (P28223 whole entry, species assumed): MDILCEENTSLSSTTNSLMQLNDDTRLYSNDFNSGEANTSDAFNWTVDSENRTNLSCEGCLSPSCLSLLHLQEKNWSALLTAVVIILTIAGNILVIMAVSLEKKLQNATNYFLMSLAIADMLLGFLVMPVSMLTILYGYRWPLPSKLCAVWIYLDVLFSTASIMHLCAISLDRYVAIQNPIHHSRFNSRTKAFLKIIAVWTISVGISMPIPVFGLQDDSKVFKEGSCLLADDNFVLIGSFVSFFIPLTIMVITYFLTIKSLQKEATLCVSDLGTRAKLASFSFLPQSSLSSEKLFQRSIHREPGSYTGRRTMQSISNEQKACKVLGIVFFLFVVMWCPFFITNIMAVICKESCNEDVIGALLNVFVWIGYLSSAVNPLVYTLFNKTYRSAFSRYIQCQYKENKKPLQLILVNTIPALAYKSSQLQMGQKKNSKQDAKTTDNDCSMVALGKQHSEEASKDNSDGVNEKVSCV

For `Clc1cccc(COc2cncc(N3CCNCC3)n2)c1` [CP-809101, 2-(3-Chlorobenzyloxy)-6-(piperazin-1-yl)pyrazine], the “5-HT2A Emax” value (5-HT2A) is listed as 67% and the EC50 (5-HT2A) is listed as 153 nM.

In the case of `C[C@H]1CNCCc2ccc(Cl)cc21` [Lorcaserin, (1R)-8-chloro-2,3,4,5-tetrahydro-1-methyl-1H-3-benzazepine], the “5-HT2C Emax” value (5-HT2C) is given as 100% and the “5-HT2A Emax” value (5-HT2A) is given as 75%.

In the case of `C[C@H](N)Cn1ccc2cc(F)c(Cl)cc21` [RO 60-01752, (S)-2-(6-chloro-5-fluoroindol-1-yl)-1-methylethylamine], the “5-HT2B Emax” value (5-HT2B) is listed as 130 ± 30%, the “5-HT2C Emax” value (5-HT2C) is listed as 88 ± 20% and the “5-HT2A Emax” value (5-HT2A) is listed as 91 ± 5%.

In the case of `c1cc2c3c(c1)[C@H]1CCC[C@H]1CN3CCNC2` [Vabicaserin], the EC50 (5-HT2A) is listed as 1650 nM.

In the case of `c1cc2c3c(c1)[C@H]1CCC[C@H]1N3CCNC2` [WAY-163909, (7bR,10aR)-1,2,3,4,8,9,10,10a-octahydro-7bH-cyclopenta-[b][1,4]diazepino[6,7,1hi]indole], the EC50 (5-HT2B) is given as 185 ± 105 nM.
